The source of these data is patent US20160213499A1, “BIODEGRADABLE ENDOPROSTHESES AND METHODS FOR THEIR FABRICATION” (Elixir Medical Corporation, priority 2015, published 2016).

The series can be described thus: Pharmacokinetic release profile of novolimus from a stent (FIG. 35). Format: in vivo.

For the molecule `CO[C@@H]1C[C@H](C[C@@H](C)[C@@H]2CC(=O)[C@H](C)/C=C(\C)[C@@H](O)[C@@H](OC)C(=O)[C@H](C)C[C@H](C)/C=C/C=C/C=C(\C)[C@@H](O)C[C@@H]3CC[C@@H](C)[C@@](O)(O3)C(=O)C(=O)N3CCCC[C@H]3C(=O)O2)CC[C@H]1O` [novolimus, 16-O-desmethyl-rapamycin], the tissue drug concentration (at 90 days) worked out at 0.5 ng/mg. Also, the drug released entry (in one month) is “over 85%”.
